# Target: T1, DDR2 extracellular domain (ECD) (Homo sapiens, UniProt Q16832)
# T1 sequence (Q16832 22-399 limits assumed): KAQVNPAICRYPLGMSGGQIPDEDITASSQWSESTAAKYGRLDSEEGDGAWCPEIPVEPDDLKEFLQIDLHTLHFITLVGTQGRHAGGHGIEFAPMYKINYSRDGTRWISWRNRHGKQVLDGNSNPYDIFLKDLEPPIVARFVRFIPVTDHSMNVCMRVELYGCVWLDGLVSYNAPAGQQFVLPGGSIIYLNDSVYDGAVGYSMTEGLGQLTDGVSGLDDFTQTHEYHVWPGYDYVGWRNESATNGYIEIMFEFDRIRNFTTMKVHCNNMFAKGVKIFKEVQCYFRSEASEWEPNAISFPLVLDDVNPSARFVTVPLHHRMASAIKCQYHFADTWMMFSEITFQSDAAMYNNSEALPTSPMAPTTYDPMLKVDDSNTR
# Assay: in vitro ELISA-type assay, binding of soluble DDR2 ECD to immobilized collagen triple helical peptide
# Details: values given in μM; read-out: IC50, Inhibition of DDR2-collagen binding activity
# Experimental: The activity of the synthesized compounds was assayed using an in vitro ELISA-type assay to measure the binding of purified, soluble DDR2 extracellular domain (ECD) to an immobilized substrate. The substrate used was a high affinity, specific, triple helical peptide (see Xu et al., PLoS One. 2012; 7(12): e52209), which represents the minimal DDR2 specific binding domain within collagens I-III.
# DDR2-collagen binding activity was measured in the presence of 250 nM, 500 nM, or 2 μM of test compound or DMSO control.
row,SMILES,IC50 [µM]
1,"CCOc1ccc2nc3ccc(=O)cc-3oc2c1 [7-ethyloxy-phenoxazin-3-one, reference compound]",4
2,O=C(Nc1ccccc1)Oc1ccc2nc3ccc(=O)cc-3oc2c1 [WRG-R-12],> 100
3,COCCOc1ccc2nc3ccc(=O)cc-3oc2c1 [WRG-R-4],14
4,"CCCCCOc1ccc2nc3ccc(=O)cc-3oc2c1 [WRG-1, 7-pentyloxy-phenoxazin-3-one]",3.5

# Other lines, results leading:
row,IC50 [µM],SMILES
1,> 100,O=c1ccc2nc3ccc(NS(=O)(=O)c4ccccc4)cc3oc-2c1 [WRG-R-20]
2,1.2,O=c1ccc2nc3ccc(OCc4cccnc4)cc3oc-2c1 [WRG-R-9]
3,1.41,O=C(Oc1ccc2nc3ccc(=O)cc-3oc2c1)c1ccccc1 [WRG-R-6]

# Same assay, conditions: values in nM; read-out: IC50, Inhibition of DDR2-collagen binding activity
row,SMILES,IC50 [µM]
1,"O=c1ccc2nc3ccc(OCc4ccccc4)cc3oc-2c1 [WRG-2, 7-benzyloxy-phenoxazin-3-one]",0.461
2,COc1cccc(COc2ccc3nc4ccc(=O)cc-4oc3c2)c1 [WRG-R-5],0.393

# Second part, the compound after the results:
row,IC50 [µM],SMILES
1,0.311,O=c1ccc2nc3ccc(OCc4ccncc4)cc3oc-2c1 [WRG-R-10]
2,0.558,O=c1ccc2nc3ccc(OS(=O)(=O)c4ccccc4)cc3oc-2c1 [WRG-R-7]
3,0.11,O=c1ccc2nc3ccc(OCc4ccc(OC(F)F)cc4)cc3oc-2c1 [WRG-R-27]

# From US20170334865A1, “DDR2 INHIBITORS AND METHODS OF USING” (WASHINGTON UNIVERSITY, priority 2014, published 2017)
